From patent US20140200144A1, “TREATMENT OF CROPS WITH A LOWER ALKYL N[…] ALTER CELL CYCLE AND WATER REGULATION” (1,4 GROUP, INC., priority 2013, published 2014)

Columns and labels:
[1] = test system: potato meristem transcripts; assay: Microarray transcriptional profiling (POCI 44K oligo array) of potato meristems; format: cell-based, potato (Russet Burbank)
Procedure: On the day of treatment, tubers were transferred from 3° to 20° C. and were immediately washed in running tap water. After drying at room temperature in the dark, the tubers were placed into 4 L airtight containers. A beaker containing about 5 g of activated charcoal was placed in the chamber containing the control tubers prior to sealing (Control). DMN (0.15 mL liquid) was placed on cotton wool in a beaker and sealed in the treatment chamber (DMN3 days). The chambers were incubated in the dark at 20° C. for three days. At this time tubers were removed and the lateral meristems were isolated using a curette with the aid of a dissecting microscope. […] One group of DMN-treated tubers was incubated for a further two days in air (dark, 20° C.) prior to meristem isolation (DMN3 days+2).
RNA was isolated from frozen meristems by grinding to a fine powder in a mortar and pestle followed by isolation and purification using a Ribopure Kit (www.ambio.com). RNA was quantified using a BioSpec nano and quality was assessed by gel electrophoresis and visualization of ribosomal RNA. Total RNA (500 ng) was denatured in the presence of a T7 promoter primer and cDNA was synthesized using reverse transcriptase. The cDNA was used as a template for in vitro transcription by synthesis with T7RNA polymerase, which amplified target material and incorporated cyanine 3-labeled CTP. The labeled cRNA was purified using spin columns and quantified using a spectrophotometer. […] Probe generation and hybridization to the array were conducted through a contract to Gene Logic (www.genelogic.com). Twelve samples were used to probe against the POCI array, three samples from eco-dormant meristems (harvested directly from 3° C. storage), three samples from meristems isolated from tubers treated with DMN for three days in a closed container, three samples treated with water for three days in a closed container, three samples treated with DMN for three days and then exposed to air for two days. The three samples for each treatment were biological replicates.
Analysis of the microarray was conducted in two stages; total array data was examined using a linear model and the software limma, and pathway analysis was conducted by linking the potato sequences to the Arabidopsis thaliana. […] The data was corrected for background and normalized between arrays using a loess method. […] The use of limma for analysis of oligo arrays was accomplished by analyzing data from a single emission channel.
The array data was transformed to log base 2 and normalized between arrays using default parameters in GeneMathsXT software package (www.applied-maths.com). […] Pathway Studio 8.0 (www.ariadnegenomics.com) was utilized to determine metabolic changes that were associated with DMN treated for three days compared to controls.

[2] = test system: potato meristem transcripts; assay: QT-PCR analysis of potato meristem transcripts; format: cell-based, potato (Russet Burbank); conditions: DMN for three days, vs control
Procedure: On the day of treatment, tubers were transferred from 3° to 20° C. and were immediately washed in running tap water. After drying at room temperature in the dark, the tubers were placed into 4 L airtight containers. A beaker containing about 5 g of activated charcoal was placed in the chamber containing the control tubers prior to sealing (Control). DMN (0.15 mL liquid) was placed on cotton wool in a beaker and sealed in the treatment chamber (DMN3 days). The chambers were incubated in the dark at 20° C. for three days. At this time tubers were removed and the lateral meristems were isolated using a curette with the aid of a dissecting microscope. […]
A set of transcripts was selected for further analysis to confirm the microarray data and to determine the possible cell cycle position of tubers treated with DMN. […] Therefore, primers were determined by isolating a longer DNA sequence from the DFCI-Potato Gene Index corresponding to the microarray oligonucleotide and searching that sequence for primers using the Applied Biosystems Primer Express 3.0 software (www.appliedbiosystems.com). cDNA template for QT-PCR was prepared from mRNA isolated from potato meristems treated with DMN for three days as described above. PCR reactions were run on a StepOne™ Real Time System and analyzed using Step One Software v2.0 (www.appliedbiosystems.com) to determine ΔΔCT values on a log10 scale. […]

[3] = test system: potato tubers; conditions: J. Zalewsky, personal communication; cited from earlier work
[4] = test system: potato meristems; assay: 3H-thymidine incorporation into DNA of meristems from DMN-treated tubers; format: cell-based, potato (Russet Burbank); conditions: for Thymidine incorporation (labeled thymidine taken up incorporated into DNA): meristems from tubers treated with DMN 3 days at 20° C.
Procedure: On the day of treatment, tubers were transferred from 3° to 20° C. and were immediately washed in running tap water. After drying at room temperature in the dark, the tubers were placed into 4 L airtight containers. A beaker containing about 5 g of activated charcoal was placed in the chamber containing the control tubers prior to sealing (Control). DMN (0.15 mL liquid) was placed on cotton wool in a beaker and sealed in the treatment chamber (DMN3 days). The chambers were incubated in the dark at 20° C. for three days. At this time tubers were removed and the lateral meristems were isolated using a curette with the aid of a dissecting microscope. Either used fresh (thymidine incorporation) or immediately frozen in liquid nitrogen and stored at −80° C., as previously described (Campbell et al., 1996). One group of DMN-treated tubers was incubated for a further two days in air (dark, 20° C.) prior to meristem isolation (DMN3 days+2). Samples were also collected from untreated non-dormant buds at day 0 immediately after removal from 3° C. storage; henceforth referred to as eco-dormant (Lang et al. 1987)
Freshly excised meristems were washed with deionized water and groups of 20 buds were incubated on 1 mL of buffer (10 mM Mes/KOH; pH 5.7) containing 0.9 μCi of ^3H-thymidine (60 μCi/μmole; American Radiolabeled Chemicals Inc., St. Louis, Mo.). The meristems were incubated on an oscillating shaker (100 rpm) at room temperature in the dark. After three hours, meristems were removed from the incubation media, washed extensively with deionized water followed by two washes with incubation buffer containing 5 mM unlabeled thymidine, blotted dry, frozen in liquid nitrogen, and stored at −80° C. To determine incorporation, the frozen meristems were homogenized in 1 mL ice-cold 10% (w/v) TCA. After standing on ice for 3-4 hours, the samples were vigorously mixed. An aliquot was removed and placed in a scintillation vial to determine total uptake. A second equal aliquot was removed and placed on a microfiber filter (GF/C; Whatman). […]

[5] = test system: sprouting root and tuber crops, bulb crops, ornamentals; assay: Effect on sprouting crops; format: in vivo
[6] = test system: ABA levels; conditions: Campbell et al. 2010; cited from earlier work
[7] = test system: potato tubers; conditions: Beveridge et al. 1981; cited from earlier work
[8] = test system: berries; conditions: freshly harvested berries; copending application; cited from earlier work
[9] = DMN three days vs three-day control

Cc1ccc(C)c2ccccc12 [DMN, 1,4-dimethylnaphthalene]
expression of transcripts that encode cyclin or cyclin-like proteins [1, 9]: decreased expression | transcripts assigned to water regulation and responses to salt stress [1, 9]: increased | expression of the Cln1 homolog CYCA1 ([1]; DMN treatment): decrease | Nucleoside diphosphate kinase (NDPK) transcript ([1]; exposure to DMN): down regulated | transcripts for CDKB1, CYCD3, PCNA, and UTPase (G1/S-phase or early S-phase) [2]: decreased | transcripts for KRP1, KRP2, MYC2, WRKY, and CYCA3 [2]: elevated | turgidity and tuber fresh weight [3]: increase in turgidity and maintenance of tuber fresh weight | Thymidine incorporation (labeled thymidine taken up incorporated into DNA) ([4]; Run 1, control 14.3 ± 2.1%): 6.7 ± 0.4% | Thymidine incorporation (labeled thymidine taken up incorporated into DNA) ([4]; Run 2, control 12.5 ± 0.2%): 6.5 ± 1.0% | reduction in thymidine incorporation into DNA ([4]; non-dormant tuber meristems following DMN treatment, vs control): about 50% | effect on sprouting root and tuber crops ([5]; beet, carrot, cassaca, dasheen (taro), ginger, ginseng, horseradish, parsnip, pototato, sweet potato, turnip, yam): effective | effect on sprouting ornamentals ([5]; flowering bulbs): effective | effect on sprouting bulb crops ([5]; garlic, leek, onion, shallot): effective | ABA levels over control tissues [6]: did not result in an increase in ABA levels | premature sprouting of potato tubers [7]: shown to prevent premature sprouting | hydration and shelf life of berries [8]: maintain improved hydration
